Measurements as given in patent US10793568B2, “Hormone receptor modulators for treating metabolic conditions and disorders” (ARDELYX, INC., priority 2016, dated 2020).

Experiments:
[1] = molecular target: ligand binding domain of human FXR (Homo sapiens (Human), UniProt Q96RI1); test: FXR ligand binding assay (LanthaScreen TR-FRET, SRC2-2 peptide recruitment); conditions: for pEC50: -log EC50, concentration required to produce 50% activation; for Emax: extent of activation relative to GW4064, read-out: % Efficacy
[2] = molecular target: human Farnesoid X receptor ligand-binding domain/Gal4 DNA binding domain chimera (Homo sapiens (Human), UniProt Q96RI1); test: Cell-based assay of FXR activation (FXR-UAS-bla HEK 293T beta-lactamase reporter); conditions: cellular FXR beta-lactamase reporter assay; for Emax: HEK-293T, extent of activation relative to GW4064, read-out: % Efficacy; for EC50: FXR-UAS-bla HEK 293T cells, 16 h, pEC50 = -log EC50
Summary of the method: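 HEK 293T cells stably expressing a Gal4-fused human FXR LBD and a UAS-driven beta-lactamase reporter were incubated with serially diluted compounds for 16 h at 37 °C in phenol red-free DMEM with 2% charcoal-stripped FBS. CCF4 FRET read-out: excitation 409 nm, emission 447 nm. pEC50 comes from a 3-parameter logistic fit, and efficacy is given as % of GW4064.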

DSS colitis mice = test: Restoration of epithelial barrier integrity in DSS colitis; format: in vivo, C57Bl/6 mice; conditions: 30 mg/kg once daily oral gavage
Procedure: Colonic histopathology was assessed in mice administered dextran sodium sulfate (DSS) to assess the ability of selected example compounds to restore epithelial barrier integrity in a model of colitis presenting with epithelial erosions. Approximately seven-week old, female, C57Bl/6 mice were purchased from Envigo (Livermore, Calif.), were housed 6 per cage and acclimated for at least 2 weeks before study initiation. Animals were fed standard laboratory rodent chow Harlan Teklad Global 2018 (Maddison, Wis.). Mice had ad libitum access to food and water for the duration of the study and were maintained in a temperature and humidity controlled room on a standard light/dark cycle of 6 AM to 6 PM. DSS was prepared at 1.5% (MW 35-50 kDa, Lot # M7191, MP Biomedical) in filtered drinking water and provided to the mice from Day 0 to Day 7 (n=12/group). The DSS water was replaced once during the study on Day 3 or 4 with fresh DSS water. One cohort of mice (n=6) was provided drinking water without DSS and severed as the non-diseased control group. Vehicle (1% methylcellulose in water, 10 mL/kg) or varying doses of test compound were administered once daily by oral gavage beginning on Day −3 through Day 8. FXR agonist compounds of the invention, FXR1 and FXR2, were tested at doses of 0.3 and 1 mg/kg and compared to known FXR agonist obeticholic acid (OCA) administered at 30 mg/kg. Body weight and food and water intake were measured daily from the initiation of DSS administration. Disease activity index (DAI) scoring was performed on Day 9 prior to necropsy. Stool consistency, blood in stool, incidence of rectal prolapse, and body condition was assessed according to the scoring system in Table 25 and summed to a total DAI score:
Following DAI scoring on Day 9 and under isoflurane anesthesia mice were exsanguinated via cardiac puncture and euthanized by thoracotomy, followed by cervical dislocation. The entire colon (from the cecum to the anus) was removed, and the length recorded. The luminal contents were removed by flushing with ice-cold PBS using a blunt needle attached to a syringe and the colon was blotted dry and weighed. For each treatment group, half of the distal colon samples were prepared for cytokine analysis and half were prepared for histological evaluation. For cytokine measurement, the distal ⅓ of the colon was excised and weighed, placed into 5 mL Eppendorf tubes, frozen on dry ice and stored at −80° C., until analysis. Inflammatory cytokines were measured in colon tissue using a V-Plex custom kit (Proinflammatory Panel 1 (mouse), Mesoscale Technology). For histology, the colon was rolled by grasping the distal end and rotating to generate a spiral with a third dimension. The colon was then placed in a tissue cassette, and into a jar of 10/o buffered formalin phosphate at room temperature for at least 24 hours to ensure tissue fixation, at which point the formalin was replaced with 70% ethanol. […] Three levels of the distal colon were assigned a colitis score and the average colitis score for each animal was derived by summing the colitis scores for the three levels of colon evaluated and dividing the sum by three. The average colitis score for each treatment group was derived by summing the colitis scores for all levels of colon evaluated in the group and dividing the sum by the total number of levels of colon evaluated for that group. The presence or absence of mucosal defects (erosions or ulcerations) was also recorded for each level of colon. […]

human Farnesoid X receptor ligand-binding domain/Gal4 DNA binding domain chimera, sequence (Q96RI1 262-486, change not shown): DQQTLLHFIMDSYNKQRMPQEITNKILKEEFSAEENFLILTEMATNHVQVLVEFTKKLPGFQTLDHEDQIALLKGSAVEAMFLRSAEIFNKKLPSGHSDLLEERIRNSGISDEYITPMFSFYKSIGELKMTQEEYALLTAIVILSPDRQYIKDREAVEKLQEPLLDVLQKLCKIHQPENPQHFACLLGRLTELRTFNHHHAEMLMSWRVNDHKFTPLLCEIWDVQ
human Farnesoid X receptor ligand-binding domain/Gal4 DNA binding domain chimera, sequence (P04386 1-147 partner): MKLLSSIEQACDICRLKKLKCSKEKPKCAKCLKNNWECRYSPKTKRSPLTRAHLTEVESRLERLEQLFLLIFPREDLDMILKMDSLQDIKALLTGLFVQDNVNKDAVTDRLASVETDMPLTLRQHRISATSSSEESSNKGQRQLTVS
ligand binding domain of human FXR, sequence (Q96RI1 262-486): as the sequence (Q96RI1 262-486, change not shown) above

O=C(NS(=O)(=O)C1CCOC1)c1ccc(N2C(=O)[C@@H]3C[C@H]2C[C@H]3OCc2c(-c3c(Cl)cccc3Cl)noc2C2CC2)cc1 (stereo partly drawn) [Compound I-340, 4-((1S,4R,5R)-5-((5-cyclopropyl-3-(2,6-dichlorophenyl)isoxazol-4-yl)methoxy)-3-oxo-2-azabicyclo[2.2.1]heptan-2-yl)-N-((tetrahydrofuran-3-yl)sulfonyl)benzamide]
pEC50 [1]: 8.8
Emax [1]: 182%
Emax [2]: 110%
EC50 [2]: 7.94 nM

O=C(NS(=O)(=O)CC1CCOC1)c1ccc(N2C(=O)[C@@H]3C[C@H]2C[C@H]3OCc2c(-c3c(Cl)cccc3Cl)noc2C2CC2)cc1 (stereo partly drawn) [Compound I-341, 4-((1S,4R,5R)-5-((5-cyclopropyl-3-(2,6-dichlorophenyl)isoxazol-4-yl)methoxy)-3-oxo-2-azabicyclo[2.2.1]heptan-2-yl)-N-(((tetrahydrofuran-3-yl)methyl)sulfonyl)benzamide]
pEC50 [1]: 8.7
Emax [1]: 164%
Emax [2]: 109%
EC50 [2]: 10 nM

O=C(NS(=O)(=O)CCC1CCOC1)c1ccc(N2C(=O)[C@@H]3C[C@H]2C[C@H]3OCc2c(-c3c(Cl)cccc3Cl)noc2C2CC2)cc1 (stereo partly drawn) [Compound I-342, 4-((1S,4R,5R)-5-((5-cyclopropyl-3-(2,6-dichlorophenyl)isoxazol-4-yl)methoxy)-3-oxo-2-azabicyclo[2.2.1]heptan-2-yl)-N-((2-(tetrahydrofuran-3-yl)ethyl)sulfonyl)benzamide]
pEC50 [1]: 8.6
Emax [1]: 139%
Emax [2]: 125%
EC50 [2]: 31.6 nM

O=C(NS(=O)(=O)C1CCCC1)c1ccc(N2C(=O)[C@@H]3C[C@H]2C[C@H]3OCc2c(-c3c(Cl)cccc3Cl)noc2C2CC2)cc1 [Compound I-343, N-(cyclopentylsulfonyl)-4-((1S,4R,5R)-5-((5-cyclopropyl-3-(2,6-dichlorophenyl)isoxazol-4-yl)methoxy)-3-oxo-2-azabicyclo[2.2.1]heptan-2-yl)benzamide]
pEC50 [1]: 9
Emax [1]: 176%
Emax [2]: 105%
EC50 [2]: 0.1 nM

O=C(NS(=O)(=O)[C@@H]1CCC[C@H]1O)c1ccc(N2C(=O)[C@@H]3C[C@H]2C[C@H]3OCc2c(-c3c(Cl)cccc3Cl)noc2C2CC2)cc1 [Compound I-344, 4-[(1S,4R,5R)-5-{[5-cyclopropyl-3-(2,6-dichlorophenyl)-1,2-oxazol-4-yl]methoxy}-3-oxo-2-azabicyclo[2.2.1]heptan-2-yl]-N-{[(1R,2R)-2-hydroxycyclopentyl]sulfonyl}benzamide]
pEC50 [1]: 8.4
Emax [1]: 203%
Emax [2]: 132%
EC50 [2]: 1.58 nM

NS(=O)(=O)[C@@H]1CCC[C@H]1OC(=O)c1ccc(N2C(=O)[C@@H]3C[C@H]2C[C@H]3OCc2c(-c3c(Cl)cccc3Cl)noc2C2CC2)cc1 [Compound I-345, (1R,2R)-2-sulfamoylcyclopentyl 4-[(1S,4R,5R)-5-{[5-cyclopropyl-3-(2,6-dichlorophenyl)-1,2-oxazol-4-yl]methoxy}-3-oxo-2-azabicyclo[2.2.1]heptan-2-yl]benzoate]
pEC50 [1]: 8.6
Emax [1]: 203%
Emax [2]: 121%
EC50 [2]: 3.98 nM

O=C(NS(=O)(=O)[C@@H]1CCC[C@H]1O)c1ccc(N2C(=O)[C@@H]3C[C@H]2C[C@H]3OCc2c(-c3c(Cl)cccc3Cl)noc2C2CC2)cc1F [Compound I-346, 4-[(1S,4R,5R)-5-{[5-cyclopropyl-3-(2,6-dichlorophenyl)-1,2-oxazol-4-yl]methoxy}-3-oxo-2-azabicyclo[2.2.1]heptan-2-yl]-2-fluoro-N-{[(1R,2R)-2-hydroxycyclopentyl]sulfonyl}benzamide]
pEC50 [1]: 8.2
Emax [1]: 188%
Emax [2]: 133%
EC50 [2]: 0.794 nM

NS(=O)(=O)[C@@H]1CCC[C@H]1OC(=O)c1ccc(N2C(=O)[C@@H]3C[C@H]2C[C@H]3OCc2c(-c3c(Cl)cccc3Cl)noc2C2CC2)cc1F [Compound I-347, (1R,2R)-2-sulfamoylcyclopentyl 4-[(1S,4R,5R)-5-{[5-cyclopropyl-3-(2,6-dichlorophenyl)-1,2-oxazol-4-yl]methoxy}-3-oxo-2-azabicyclo[2.2.1]heptan-2-yl]-2-fluorobenzoate]
pEC50 [1]: 8.5
Emax [1]: 203%
Emax [2]: 135%
EC50 [2]: 1 nM

O=C(O)CNC(=O)c1ccc(N2C(=O)[C@@H]3C[C@H]2C[C@H]3OCc2c(-c3c(Cl)cccc3Cl)noc2C2CC2)cc1 [Compound I-358, 2-({4-[(1S,4R,5R)-5-{[5-cyclopropyl-3-(2,6-dichlorophenyl)-1,2-oxazol-4-yl]methoxy}-3-oxo-2-azabicyclo[2.2.1]heptan-2-yl]phenyl}formamido)acetic Acid]
pEC50 [1]: 8
Emax [1]: 155%
Emax [2]: 124%
EC50 [2]: 631 nM

O=C(NCCS(=O)(=O)O)c1ccc(N2C(=O)[C@@H]3C[C@H]2C[C@H]3OCc2c(-c3c(Cl)cccc3Cl)noc2C2CC2)cc1 [Compound I-359, 2-({4-[(1S,4R,5R)-5-{[5-cyclopropyl-3-(2,6-dichlorophenyl)-1,2-oxazol-4-yl]methoxy}-3-oxo-2-azabicyclo[2.2.1]heptan-2-yl]phenyl}formamido)ethane-1-sulfonic Acid]
pEC50 [1]: 8.4
Emax [1]: 148%
Emax [2]: 126%
EC50 [2]: 398 nM

C[C@@H]1[C@@H]2C[C@@H](C[C@H]2OCc2c(-c3c(Cl)cccc3Cl)noc2C2CC2)N1c1ccc(C(=O)O)cc1 [Compound I-360, 4-[(1S,3R,4S,5R)-5-[[5-cyclopropyl-3-(2,6-dichlorophenyl)-1,2-oxazol-4-yl]methoxy]-3-methyl-2-azabicyclo[2.2.1]heptan-2-yl]benzoic acid]
pEC50 [1]: 8.6
Emax [1]: 117%
Emax [2]: 102%
EC50 [2]: 0.794 nM

CC[C@H]1[C@@H](O)[C@@H]2[C@H](CC[C@]3(C)[C@@H]([C@H](C)CCC(=O)O)CC[C@@H]23)[C@@]2(C)CC[C@@H](O)C[C@@H]12 [OCA, obeticholic acid]
DAI score (DSS colitis mice; Day 9, vs DSS vehicle): did not significantly affect body weight nor DAI score
body weight (DSS-induced reduction) (DSS colitis mice; vs DSS vehicle): did not significantly affect body weight
epithelial erosions (mucosal defects) observed histologically (DSS colitis mice; vs DSS vehicle): did not reduce the number of epithelial erosions
histology colitis score (DSS colitis mice; vs DSS vehicle): did not significantly affect histology colitis score
inflammatory cytokines IL-6, IL-1β, TNFα, IFNγ and KC/Gro in the colon (DSS colitis mice; vs DSS vehicle): only significantly reduced the levels of IL-1β, TNFα and KC/Gro
